Measured values reported in the NIST ThermoML archive (doi:10.1016/j.jct.2018.09.010).
± gives the expanded uncertainty stated by the source.

Experiment: relative permittivity at various frequencies (dimensionless); xn = mol fraction of the nth substance listed
Conditions: Gas, Frequency=385 MHz, Reentrant cavity resonator

For `[C-]#[O+]` [carbon monoxide] + O=C=O, the relative permittivity (255.04 K, 1972.8 kPa, x1 = 0.7493) was 1.01697 ± 0.075, the relative permittivity (255.04 K, 3976.6 kPa, x1 = 0.7493) was 1.03607 ± 0.075 and the relative permittivity (255.05 K, 3004.5 kPa, x1 = 0.4959) was 1.03119 ± 0.075. The relative permittivity (255.05 K, 5999.5 kPa, x1 = 0.7493) was 1.05751 ± 0.076, the relative permittivity (255.06 K, 1479.4 kPa, x1 = 0.4959) was 1.01417 ± 0.075 and the relative permittivity (255.06 K, 1511.8 kPa, x1 = 0.4959) was 1.01451 ± 0.075. For the same compound, the relative permittivity (255.06 K, 2026.5 kPa, x1 = 0.7493) was 1.01747 ± 0.075, the relative permittivity (255.06 K, 3003.3 kPa, x1 = 0.4959) was 1.03118 ± 0.075 and the relative permittivity (255.06 K, 4001.7 kPa, x1 = 0.4959) was 1.04416 ± 0.076. It also gave a relative permittivity (255.06 K, 5990.8 kPa, x1 = 0.7493) of 1.05742 ± 0.076, a relative permittivity (255.06 K, 7992.1 kPa, x1 = 0.7493) of 1.08067 ± 0.077 and a relative permittivity (273.14 K, 1964 kPa, x1 = 0.7493) of 1.01551 ± 0.075. It also gave a relative permittivity (273.14 K, 3995.6 kPa, x1 = 0.7493) of 1.03288 ± 0.075, a relative permittivity (273.14 K, 5997.2 kPa, x1 = 0.7493) of 1.05136 ± 0.076 and a relative permittivity (273.15 K, 2016.4 kPa, x1 = 0.7493) of 1.01594 ± 0.075. The relative permittivity (273.15 K, 4009 kPa, x1 = 0.7493) was 1.033 ± 0.075, the relative permittivity (273.15 K, 5997.2 kPa, x1 = 0.7493) was 1.05135 ± 0.076 and the relative permittivity (273.15 K, 7991.2 kPa, x1 = 0.7493) was 1.07098 ± 0.077. For the same compound, the relative permittivity (273.2 K, 1454.1 kPa, x1 = 0.4959) was 1.01273 ± 0.075, the relative permittivity (273.2 K, 2480.8 kPa, x1 = 0.4959) was 1.02261 ± 0.075 and the relative permittivity (273.2 K, 4502 kPa, x1 = 0.4959) was 1.0448 ± 0.076. It also gave a relative permittivity (273.2 K, 5505.6 kPa, x1 = 0.4959) of 1.05746 ± 0.076, a relative permittivity (273.21 K, 3471.2 kPa, x1 = 0.4959) of 1.03299 ± 0.075 and a relative permittivity (293.23 K, 1980.8 kPa, x1 = 0.7493) of 1.0144 ± 0.075. The relative permittivity (293.23 K, 3995.9 kPa, x1 = 0.7493) was 1.02993 ± 0.075, the relative permittivity (293.23 K, 4015.8 kPa, x1 = 0.7493) was 1.0301 ± 0.075 and the relative permittivity (293.23 K, 6011.2 kPa, x1 = 0.7493) was 1.04635 ± 0.076. For the same compound, the relative permittivity (293.23 K, 6015 kPa, x1 = 0.7493) was 1.04638 ± 0.076, the relative permittivity (293.23 K, 8001.1 kPa, x1 = 0.7493) was 1.0633 ± 0.077 and the relative permittivity (293.24 K, 2023.8 kPa, x1 = 0.7493) was 1.01472 ± 0.075. It also gave a relative permittivity (293.25 K, 2039.7 kPa, x1 = 0.4959) of 1.0167 ± 0.075, a relative permittivity (293.25 K, 3988.8 kPa, x1 = 0.4959) of 1.03469 ± 0.075 and a relative permittivity (293.25 K, 4025.1 kPa, x1 = 0.4959) of 1.03504 ± 0.075. The relative permittivity (293.25 K, 5986 kPa, x1 = 0.4959) was 1.05557 ± 0.076, the relative permittivity (293.26 K, 1975.2 kPa, x1 = 0.4959) was 1.01614 ± 0.075 and the relative permittivity (293.26 K, 6541.1 kPa, x1 = 0.4959) was 1.06185 ± 0.076. It also gave a relative permittivity (313.26 K, 1937.1 kPa, x1 = 0.4959) of 1.01462 ± 0.075, a relative permittivity (313.26 K, 2024.1 kPa, x1 = 0.4959) of 1.0153 ± 0.075 and a relative permittivity (313.26 K, 5954.7 kPa, x1 = 0.4959) of 1.04939 ± 0.076. It also gave a relative permittivity (313.26 K, 6218.2 kPa, x1 = 0.4959) of 1.0519 ± 0.076, a relative permittivity (313.27 K, 4013.4 kPa, x1 = 0.4959) of 1.03178 ± 0.075 and a relative permittivity (313.28 K, 1974.2 kPa, x1 = 0.7493) of 1.01333 ± 0.075. The relative permittivity (313.28 K, 2022.8 kPa, x1 = 0.7493) was 1.01367 ± 0.075, the relative permittivity (313.28 K, 3992.7 kPa, x1 = 0.7493) was 1.02755 ± 0.075 and the relative permittivity (313.28 K, 5954.9 kPa, x1 = 0.7493) was 1.04192 ± 0.076. The relative permittivity (313.28 K, 7996.5 kPa, x1 = 0.7493) was 1.05736 ± 0.076 and the relative permittivity (313.29 K, 6015.3 kPa, x1 = 0.7493) was 1.04237 ± 0.076.
